System: S. epidermidis (Staphilococcus epidermidis)
Assay: MIC by conventional measurement method, S. epidermidis
Type: cell-based
Details: 106 cfu/ml, necessary time 18 hours
Description: The drug susceptibility measurement results are obtained by employing S. epidermidis (Staphilococcus epidermidis), […] (Genus Enterococcus) as bacteria, and by determining an amount of bacteria to be 10^6 cfu/ml. And, PCG (Penicillin G), IPM (Imipenem), MINO (Minocycline), EM (Erythromycin), OFLX (Ofloxacin), ST (Sulfamethoxazole Trimethoprim), […]) are employed as drug.

| SMILES | (a) MIC values (minimum inhibitory interfering concentration) obtained by a conventional measurement method |
| --- | --- |
| CC[C@H]1OC(=O)[C@H](C)[C@@H](O[C@H]2C[C@@](C)(OC)[C@@H](O)[C@H](C)O2)[C@H](C)[C@@H](O[C@@H]2O[C@H](C)C[C@H](N(C)C)[C@H]2O)[C@](C)(O)C[C@@H](C)C(=O)[C@H](C)[C@@H](O)[C@]1(C)O [EM, Erythromycin] | ≦0.12 g g/ml |
| C[C@@H](O)[C@H]1C(=O)N2C(C(=O)O)=C(SCCN=CN)C[C@H]12 [IPM, Imipenem] | ≦1 g g/ml |
| CN(C)c1ccc(O)c2c1C[C@H]1C[C@H]3[C@H](N(C)C)C(O)=C(C(N)=O)C(=O)[C@@]3(O)C(O)=C1C2=O [MINO, Minocycline] | ≦0.12 g g/ml |
| CC1COc2c(N3CCN(C)CC3)c(F)cc3c(=O)c(C(=O)O)cn1c23 (centres unmarked) [OFLX, Ofloxacin] | ≦1 g g/ml |
| CN[C@H](CC(C)C)C(=O)N[C@H]1C(=O)N[C@@H](CC(N)=O)C(=O)N[C@H]2C(=O)N[C@H]3C(=O)N[C@H](C(=O)N[C@H](C(=O)O)c4cc(O)cc(O)c4-c4cc3ccc4O)[C@H](O)c3ccc(c(Cl)c3)Oc3cc2cc(c3O[C@@H]2O[C@H](CO)[C@@H](O)[C@H](O)[C@H]2O[C@H]2C[C@](C)(N)[C@H](O)[C@H](C)O2)Oc2ccc(cc2Cl)[C@H]1O [VCM, Vancomycin] | ≦1 g g/ml |

Source: patent publication US7081353B2, “Drug susceptibility measurement method and apparatus thereof” (Jikei University School of Medicine, priority 2000, dated 2006)
